Measured values: US9259433B2, “Synergistic antiviral compositions comprising a viral attachment inhibitor, an integration inhibitor, and a proviral transcription inhibitor, and their use” (priority 2007, dated 2016)
Values joined by “and” are separate entries in the source; they are usually repeats but may differ in a detail not shown here. Identical values can stand only once. Like-named read-outs stand apart in the source and are kept apart here.

Columns and labels:
[1] = mouse, in vivo
From the text: The efficacies of M4N and G4N against HSV-2 in a mouse vaginal model system were also examined. Progestin-treated female CF-1 mice (10 per group) were infected with HSV-2 in the absence or presence of G4N (in PBS), P4N (in PBS), or M4N in Vaseline (23). At the end of three days, the vaginal lavages were collected from the washings of the vagina regions. The status of the vaginal HSV-2 infection and replication were examined by their cytopathic effects on cultured human foreskin fibroblast cells. Monitoring and scoring were carried out by three persons independently.

[2] = test system: acyclovir-resistant strains of HSV-1; experiment: Inhibition of acyclovir-resistant strains of HSV-1; format: cell-based
From the text: Because the inhibitory mechanism of this class of compounds is completely distinct from the antiviral mechanism of nucleoside analogue agents, there is little possibility of cross-resistance between these two classes of drugs.

HSV-2 = experiment: Mouse vaginal model of HSV-2 infection; format: in vivo, female CF-1 mice
From the text: P4N was also found to be quite effective.

HIV = HIV entry in H9 cells; format: cell-based; settings: compound by itself
From the text: (§1) a. Salvia genus of Labiaceae family contains approximately 1000 species. 78 of these are distributed in different regions in China. […] An INi search was established based on an assay-guided purification procedure utilizing different concentrations of methanol, propanol, a two-layer extraction system (low salt water/butanol), and a high resolution inverted phase HPLC (Sperisorb OD S-2).

reverse transcriptase = molecular target: T1, reverse transcriptase (Human immunodeficiency virus type 1 group M subtype B, UniProt P04585); experiment: Reverse transcriptase activity and viral DNA levels in infected cells; format: cell-based, HIV
T1 construct: endogenous in cells; host or cells: HIV-infected cells (H9 cells named in the same paragraph)
From the text: as §1

[3] = test system: HIV-1RTMF (AZT-resistant virus); experiment: HIV replication in infected H9 cells, HIV/p24 monoclonal antibody assay; format: cell-based
Experimental: (§2) The inhibitory effect of M522 and M532 against HIV replication was further examined using 5 different strains of HIV-1, drug resistant and primary isolates in the presence of a variety of drug concentrations in infected H9 cells.
(§3) A series of drug concentrations ranging from 1.25 μg/ml to 160 μg/ml were used for testing the cytotoxicity of M522 and M532 in H9 cells, using the MTT assay to determine the viability of H9 cells in culture.

HIV-1 [4] = experiment: Acute HIV-1 infection of H9 cells; format: cell-based; settings: Human immunodeficiency virus 1
From the text: as §1

[5] = molecular target: wild type HIV-1 integrase (Human immunodeficiency virus type 1 group M subtype B, UniProt P04585); experiment: Disintegration assay; format: biochemical; settings: equal efficacy with deletion mutant
Experimental: (§4) To determine whether M522 and M532 are acting against the catalytic core domain specifically, disintegration assay was tested using deletion mutant IN containing only the core domain of HIV integrase. Such deletion mutant is defective for normal integration, but it is capable of catalyzing a reversal of the forward reaction, termed “disintegration”. The disintegration reaction can be assayed by using a deletion mutant HIV-1 integrase (IN^50-212) which lacks both the amino terminal zinc binding and the carboxyl terminal DNA binding domains but remains active in this assay, whereas such truncated IN loses activity in the 3′-processing and joining (strand transfer) assays. So, disintegration assay can be used to probe the site of drug-enzyme binding.

[6] = molecular target: deletion mutant HIV-1 integrase (IN^50-212) (Human immunodeficiency virus type 1 group M subtype B, UniProt P04585); experiment: Disintegration assay; format: biochemical; settings: IN^50-212 core domain; equal efficacy with wild type
Experimental: as §4

HIV-1MN = experiment: HIV replication in infected H9 cells, HIV/p24 monoclonal antibody assay; format: cell-based; settings: Human immunodeficiency virus 1
From the text: as §2

HIV-1IIIB = experiment: as above; format: cell-based; settings: Human immunodeficiency virus 1
From the text: as §2

HIV-1IIIBA17 variant = experiment: as above; format: cell-based; settings: Human immunodeficiency virus 1, H9
From the text: as §2

[7] = test system: HIV-1L1OR/M461/L63P.V82T/184V (protease inhibitor resistant virus); experiment: as above; format: cell-based; settings: Human immunodeficiency virus 1, H9
From the text: as §2

HIV-1RTMF = experiment: Drug combination study in H9 cells infected with HIV-1RTMF, p24 assay; format: cell-based
From the text: We tested drug combinations against two different cells infected with laboratory strain of HIV-1 RTMF. For these drug combinational studies, both the H9 cells and human PBMC have been used. We first tested how our inhibitors affect one specific strain of HIV which is resistant to drug against RT (HIV-1RTMF). Briefly H9 (1×10^5/ml) were infected with HIV-1RTMF strain with a multiplicity of infection of 0.1. These cells were further tested with three drugs, M522, Gen-1 and G4N, either in combination or separately (8, 10, 21B). After 4-day incubation at 37° C., H9 cells were subcultured with fresh culture medium containing appropriate concentrations 0, 1.25, 2.5, 5, 10, 20, 40 and 80 μM of each of the drugs, or of a combination of all three of the drugs, each at the indicated concentration. The inhibition for HIV-1 by these combinations of drugs was examined using p24 assay after 8 days.
(§5) Similarly, PBMC cells were isolated from a healthy blood sample and these cells were stimulated by PHA and IL-2. PBMC (5×10^6/ml) were infected with HIV-1RTMF. The cells were treated with three combinations of drugs, M522, Gen-1 and G4N. Fresh media and drugs were added after 4 days with drug concentrations 0, 1.25, 2.5, 5, 10, 20, 40 and 80 μM. The inhibition for HIV-1 by these combinations of drugs was also examined by using p24 assay after 8 days. […] In comparison, cytotoxicity for the three drugs combined to H9 cells was also analyzed using an MTT assay.

HIV-1 integrase = HIV-1 integrase (Human immunodeficiency virus type 1 group M subtype B, UniProt P04585); experiment: HIV-1 integrase catalytic activity of 3'-joining to the target DNA; format: biochemical
From the text: as §1

H9 cells = format: cell-based; settings: human, 192 h
Experimental: as §3, with “culture. […] In fact, the drug-protected, HIV-infected H9 cells appeared to be morphologically identical to the uninfected control cells (6).” for “culture.”
as §5

HIV-1 [8] = settings: read-out: inhibited HIV replication (IC90); FIG. 5
HIV-1 [9] = test system: HIV-1
[10] = Topical toxicity in guinea pigs; format: in vivo
HSV-1 = experiment: Dorsal cutaneous guinea pig model of HSV-1 infection; format: in vivo
Experimental: M4N and G4N were tested for their abilities to prevent HSV-1 infection in two animal model systems. The dorsal cutaneous guinea pig model system is a well-established model for HSV-1 infection that has been used in several studies to comparatively assess the potential efficacy of different topical formulations for treatment of herpes labialis. Straten M V, Carrasco D, Lee P, Tyring S K, Arch. Dermatol 137, 1232-1235 2001.

[11] = test system: HIV Sp1 enhancer sequence; experiment: Binding to Sp1 enhancer sequence by ethidium displacement; settings: excitation 517 nm, emission 596 nm
From the text: The mechanism underlying the antiviral action for NDGA derivatives was largely unknown before 1995. In 1995, Huang's group first reported a molecular study on 3′-O-methyl NDGA (FIG. 11, Mal 4)(15) isolated from creosote bush (Larrea tridentate) (16,3). […] NDGA derivatives interfere with the binding of transcription factor Sp1 to the promoter of the HIV proviral template. The target of Mal.4 is mapped to nucleotides −87 to −40, the Sp1 binding sites of the HIV long terminal repeat (LTR). […] However, large preparations of such NDGA derivatives from plant sources are labor intensive and costly. In anticipation of the possible clinical use of lignans in controlling Sp1-regulated viral and tumor growth in humans, nine different methylated NDGAs and several water soluble NDGA derivatives were synthesized chemically in large quantities with low cost (17, 18, 26, FIG. 11). Unsubstituted NDGA was used as the parent substrate. […]

COc1ccc(C[C@@H](C)[C@@H](C)Cc2ccc(OC)c(OC)c2)cc1OC [M4N, tetra-O-methyl NDGA]
toxicity [1]: no toxicity | efficacy against acyclovir-resistant strains [2]: retains complete efficacy | infection in the other 4 mice (HSV-2; 20 mg/ml in Vaseline): very little infection | mice fully infected, out of 8 (HSV-2; 20 mg/ml in Vaseline): 4 | score of the fully infected mice (HSV-2; 20 mg/ml in Vaseline): 3-4

O=C(/C=C/c1ccc(O)c2c1[C@H](C(=O)O)[C@@H](c1ccc(O)c(O)c1)O2)O[C@H](Cc1ccc(O)c(O)c1)C(=O)O [M522, lithospermic acid]
prevention of HIV entry (HIV): Neither M522 nor M532 by itself prevents HIV entry | levels of intracellular strong stop and full-length viral DNA (reverse transcriptase; following drug treatment): remained unchanged | inhibition of reverse transcriptase activity (reverse transcriptase; infected cells): no inhibition of reverse transcriptase activity | syncytia formation ([3]; H9 cells infected with HIV-1RTMF in the presence of drug): syncytia formation was prevented | IC50 ([3]; Human immunodeficiency virus 1, H9): 2.5 µg/mL and 4.6 µM | IC50 (HIV-1 [4]): 2 µM | inhibition of disintegration [5]: inhibited | inhibition of disintegration [6]: inhibited | IC50 (HIV-1MN): 16.7 µM and 9 µg/mL | IC50 (HIV-1IIIB): 11 µg/mL and 20.4 µM | IC50 (HIV-1IIIBA17 variant): 1.1 µg/mL and 2 µM | IC50 [7]: 6 µg/mL and 11.1 µM | IC50 (HIV-1RTMF; Human immunodeficiency virus 1, H9, 192 h): 4 to 6 µM | IC50 (HIV-1 integrase): 0.48 µM | CC100 (highest concentration tested, cells remained viable) (H9 cells): 160 µg/mL

acetylated Tieghemelin [oAc-Gen-1]
IC90 (HIV-1 [8]): ~10 µM | HIV-1 entry and infection in CD4+ cells (HIV-1 [9]; preincubation of drug with CD4+ cells): did not prevent HIV-1 entry and infection | infectivity of HIV-1 (HIV-1 [9]; preincubation of drug with HIV-1 virus): totally inactivated the infectivity

C[C@H](Cc1ccc(OC(=O)CN(C)C)c(OC(=O)CN(C)C)c1)[C@@H](C)Cc1ccc(OC(=O)CN(C)C)c(OC(=O)CN(C)C)c1 [G4N, meso-1,4-bis[3,4-(dimethylaminoacetoxy)phenyl]-(2R,3S)dimethylbutane]
IC50 (HIV-1RTMF; H9 cells, p24 assay after 8 days, for the combination, this concentration of each drug, read-out: IC50): 18 µM | toxicity or dermal irritation ([10]; highest soluble concentrations (150 mM)): no evidence of toxicity or dermal irritation | toxicity ([10]; topical application for six days, up to 50 mM): no evidence of toxicity | efficacy against acyclovir-resistant strains [2]: no cross-resistance | average score (HSV-2; 0.1 mM): 0.5 | infection (HSV-2; 0.1 mM): ~12.5 % infection | animals infected (HSV-2; 0.1 mM, 10 mice per group, day 3 vaginal lavage): 1 out of 10 | animals infected (HSV-2; 10 mM, 10 mice per group): no infections detected | animals infected (HSV-2; 100 mM): no infections detected | response to treatment (visual assessment) (HSV-1; 5 μM): semi-effective | response to treatment (visual assessment) (HSV-1; 10 μM): more effective | response to treatment (visual assessment) (HSV-1; 150 μM): extremely effective | HSV-1 induced cutaneous lesion formation and viral shedding (HSV-1; guinea pig, in vivo): effectively inhibited | apparent equilibrium binding constant (Kapp) [11]: 3e+06 M⁻¹
